The text below walks through data of patent publication EP4653437A2 (Innovo Therapeutics Inc., priority 2023, dated 2024).

The subject of assay [1] is A549 cells. The assay can be described thus: Measurement of PGE2-increasing activity in A549 cells (IL-1β stimulated, PGE2 quantified in supernatant). The assay is classed as cell-based. The conditions noted are these: Homo sapiens, 24 h; concentration of 1 µM of each compound; IL-1β treated A549 cells; read-out: Increased PGE2 production in A549 cells. The procedure, abridged:
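A549 cells grown 24 h in F12K with 10% FBS, then switched to serum-free medium with or without IL-1β and compound (0.1% DMSO final). After 24 h at 37 °C, 5% CO2, supernatant PGE2 quantified by immunoassay.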

The target in assay [2] is T1, human 15-PGDH (Homo sapiens, UniProt P15428).
T1 construct: purchased R&D System 5660-DH
T1 sequence (P15428 1-266): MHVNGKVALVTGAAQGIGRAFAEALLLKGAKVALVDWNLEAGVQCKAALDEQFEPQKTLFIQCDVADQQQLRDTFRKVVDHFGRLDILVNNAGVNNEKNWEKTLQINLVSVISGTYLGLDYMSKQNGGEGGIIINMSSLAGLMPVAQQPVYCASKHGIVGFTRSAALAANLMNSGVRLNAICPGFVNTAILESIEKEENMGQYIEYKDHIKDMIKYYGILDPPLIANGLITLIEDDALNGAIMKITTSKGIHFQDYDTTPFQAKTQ
The assay can be described thus: Evaluation of 15-PGDH inhibitory activity (fluorescence enzyme assay, NAD+/PGE2). The settings on record: human 15-PGDH enzyme, fluorescence Vmax. The assay is classed as biochemical. As for the experimental part:
15-PGDH inhibition activity of Example compounds was measured as follows. 6.7 ng of human 15-PGDH (R&D System# 5660-DH) enzyme (10 µL) was added to a black 96 well plate, 60 µL of buffer (50 mM Tris-HCl, pH 7.5, 0.01% Tween 20) was added, and 10 µL of 200 µM β-Nicotinamide adenine dinucleotide sodium salt (Sigma, Cat# N0632-5G) was added. 10 µL of (10x) compound solution in DMSO was added and reacted for 10 minutes at room temperature.

What is called IC50 is the midpoint of a concentration-inhibition curve.

As for `O=C(Nc1ccc(-c2cccc3c(C(=O)N4CCCCC4)cnn23)cn1)c1cccnc1` [Example 287, N-(5-(3-(piperidine-1-carbonyl)pyrazolo[1,5-a]pyridin-7-yl)pyridin-2-yl)nicotinamide], the fold induction at 1 µM in assay [1] is greater than 1.5. Besides, the IC50 in assay [2] was no more than 100 nM.
For the compound `CC(C)N1CCN(C(=O)c2ccc(-c3cccc4c(C(=O)N5CCCCC5)cnn34)cc2)CC1` [Example 68, (4-isopropylpiperazin-1-yl)(4-(3-(piperidine-1-carbonyl)pyrazolo[1,5-a]pyridin-7-yl)phenyl)methanone], the fold induction at 1 µM in assay [1] is greater than 1.5. Besides, the IC50 in assay [2] was no more than 100 nM.
For the compound `O=C(Nc1ccnnc1)c1cncc(-c2cccc3c(C(=O)N4CCCCC4)cnn23)c1` [Example 56, 5-(3-(piperidine-1-carbonyl)pyrazolo[1,5-a]pyridin-7-yl)-N-(pyridazin-4-yl)nicotinamide], the fold induction at 1 µM in assay [1] was greater than 1.5. The same compound came in with a half-inhibitory concentration (IC50) in assay [2] of no more than 100 nM.
`N#Cc1ncc(-c2ccc(-c3cccc4c(C(=O)N5CCCCC5)cnn34)cc2)cn1` [Example 305, 5-[4-[3-(piperidine-1-carbonyl)pyrazolo[1,5-a]pyridin-7-yl]phenyl]pyrimidine-2-carbonitrile]: in assay [1], the fold induction at 1 µM is greater than 1.5. In assay [2], this compound gave an IC50 of no more than 100 nM.
Regarding `O=C(c1cnn2c(-c3cnc(-c4nnco4)c(F)c3)cccc12)N1CCCCC1` [Example 380, [7-[5-fluoro-6-(1,3,4-oxadiazol-2-yl)-3-pyridyl]pyrazolo[1,5-a]pyridin-3-yl]-(1-piperidyl)methanone], the fold induction at 1 µM in assay [1] was greater than 1.5. The IC50 in assay [2] is no more than 100 nM.
On the same counts, the results for `Cn1nccc1-c1ccc(-c2cccc3c(C(=O)N4CCCCC4)cnn23)cc1` [Example 300, [7-[4-(2-methylpyrazol-3-yl)phenyl]pyrazolo[1,5-a]pyridin-3-yl]-(1-piperidyl)methanone] are less than 1.5 and no more than 100 nM.
On the same counts, the results for `O=C1CN(C(=O)c2cncc(-c3cccc4c(C(=O)N5CCCCC5)cnn34)c2)CCN1` [Example 203, 4-[5-[3-(piperidine-1-carbonyl)pyrazolo[1,5-a]pyridin-7-yl]pyridine-3-carbonyl]piperazin-2-one] are greater than 1.5 and no more than 100 nM.
In the case of `O=C(c1cnn2c(-c3ccc(N(Cc4ccccc4[N+](=O)[O-])C(=O)c4cccnc4)cc3)cccc12)N1CCCCC1` [Example 340, N-(2-nitrobenzyl)-N-(4-(3-(piperidine-1-carbonyl)pyrazolo|[1,5-a]pyridin-7-yl)phenyl)nicotinamide], in assay [1], the fold induction at 1 µM was greater than 1.5. The IC50 in assay [2] was no more than 100 nM.
As to `O=C(c1cccc(-c2cccc3c(C(=O)N4CCCCC4)cnn23)c1)N1CCNCC1` [Example 34, piperazin-1-yl(3-(3-(piperidine-1-carbonyl)pyrazolo[1,5-a]pyridin-7-yl)phenyl)methanone], in assay [1], the fold induction at 1 µM is greater than 1.5. Also, in assay [2], the IC50 was no more than 100 nM.
In the same order, the values of `O=C(c1ccc(-c2cccc3c(C(=O)N4CCCCC4)cnn23)cc1)N1CCNCC1` [Example 66, piperazin-1-yl(4-(3-(piperidine-1-carbonyl)pyrazolo[1,5-a]pyridin-7-yl)phenyl)methanone] are greater than 1.5 and no more than 100 nM.
Turning to `N#CCNC(=O)c1ccc(-c2cccc3c(C(=O)N4CCCCC4)cnn23)cn1` [Example 86, N-(cyanomethyl)-5-(3-(piperidine-1-carbonyl)pyrazolo[1,5-a]pyridin-7-yl)picolinamide], in assay [1], the fold induction at 1 µM was greater than 1.5. Also, the IC50 in assay [2] is no more than 100 nM.
For `O=C(c1cnn2c(-c3cc(Cl)nc(Cl)c3)cccc12)N1CCCCC1` [Example 282, (7-(2,6-dichloropyridin-4-yl)pyrazolo[1,5-a]pyridin-3-yl)(piperidin-1-yl)methanone], the fold induction at 1 µM in assay [1] was less than 1.5. This compound showed an IC50 in assay [2] of no more than 100 nM.
Consider `O=C(NCc1ccon1)c1ccc(-c2cccc3c(C(=O)N4CCCCC4)cnn23)cn1` [Example 89, N-(isoxazol-3-ylmethyl)-5-(3-(piperidine-1-carbonyl)pyrazolo[1,5-a]pyridin-7-yl)picolinamide], for which, in assay [1], the fold induction at 1 µM was greater than 1.5. In addition, the IC50 in assay [2] was no more than 100 nM.
With `O=C(c1cnn2c(-c3ccc(Br)nc3)cccc12)N1CCCCC1` [Example 313, (7-(6-bromopyridin-3-yl)pyrazolo[1,5-a]pyridin-3-yl)(piperidin-1-yl)methanone], the fold induction at 1 µM in assay [1] was greater than 1.5. In assay [2], this compound registered an IC50 of no more than 100 nM.
For the compound `N#Cc1ccc(-c2cccc3c(C(=O)N4CCCCC4)cnn23)cn1` [Example 18, 5-(3-(piperidine-1-carbonyl)pyrazolo[1,5-a]pyridin-7-yl)picolinonitrile], in assay [1], the fold induction at 1 µM was greater than 1.5. In assay [2], the IC50 is no more than 100 nM.
With `O=C(c1ncc(-c2cccc3c(C(=O)N4CCCCC4)cnn23)cc1F)N1CCC1` [Example 248, [7-[6-(azetidine-1-carbonyl)-5-fluoro-3-pyridyl]pyrazolo[1,5-a]pyridin-3-yl]-(1-piperidyl)methanone], in assay [1], the fold induction at 1 µM was greater than 1.5. The IC50 in assay [2] is no more than 100 nM.
As for `Cc1nc(-c2ccc(-c3cccc4c(C(=O)N5CCCCC5)cnn34)cc2)cn1C` [Example 358], the fold induction at 1 µM in assay [1] was greater than 1.5. Besides, in assay [2], the IC50 was no more than 100 nM.
As for `O=C(c1cnn2c(-c3cc(-c4cnoc4)nc(N4CCOCC4)c3)cccc12)N1CCCCC1` [Example 366, (7-(2-(isoxazol-4-yl)-6-morpholinopyridin-4-yl)pyrazolo[1,5-a]pyridin-3-yl)(piperidin-1-yl)methanone], the fold induction at 1 µM in assay [1] is greater than 1.5. The same compound returned an IC50 in assay [2] of no more than 100 nM.
For the compound `O=C(c1cnn2c(-c3ccc(Br)cc3)cccc12)N1CCCCC1` [Example 292, (7-(4-bromophenyl)pyrazolo[1,5-a]pyridin-3-yl)(piperidin-1-yl)methanone], the fold induction at 1 µM in assay [1] was greater than 1.5. For the same compound, in assay [2], the IC50 was no more than 100 nM.
As for `O=C(c1cncc(-c2cccc3c(C(=O)N4CCCCC4)cnn23)c1)N1CCOCC1` [Example 39, (7-(5-(morpholine-4-carbonyl)pyridin-3-yl)pyrazolo[1,5-a]pyridin-3-yl)(piperidin-1-yl)methanone], the fold induction at 1 µM in assay [1] is less than 1.5. Also, the IC50 in assay [2] was no more than 100 nM.
For the compound `O=C(COc1ccc(Cl)cc1)Nc1cncc(-c2cccc3c(C(=O)N4CCCCC4)cnn23)c1` [Example 406, 2-(4-chlorophenoxy)-N-(5-(3-(piperidine-1-carbonyl)pyrazolo[1,5-a]pyridin-7-yl)pyridin-3-yl)acetamide], the fold induction at 1 µM in assay [1] was greater than 1.5. For the same compound, the IC50 in assay [2] is no more than 100 nM.
In the same order, the values of `COCCNC(=O)c1cncc(-c2cccc3c(C(=O)N4CCCCC4)cnn23)c1` [Example 45, N-(2-methoxyethyl)-5-(3-(piperidine-1-carbonyl)pyrazolo[1,5-a]pyridin-7-yl)nicotinamide] are greater than 1.5 and no more than 100 nM.
For the compound `O=C(COc1ccc(Cl)cc1)Nc1ccc(-c2cccc3c(C(=O)N4CCCCC4)cnn23)cn1` [Example 410, 2-(4-chlorophenoxy)-N-[5-[3-(piperidine-1-carbonyl)pyrazolo[1,5-a]pyridin-7-yl]-2-pyridyl]acetamide], the fold induction at 1 µM in assay [1] was greater than 1.5. Besides, the half-maximal inhibitory concentration (IC50) in assay [2] was no more than 100 nM.
As to `O=C(c1cnn2c(-c3cc(-c4cncc(F)c4)nc(N4CCOC4=O)c3)cccc12)N1CCCCC1` [Example 370, 3-(5'-fluoro-4-(3-(piperidine-1-carbonyl)pyrazolo[1,5-a]pyridin-7-yl)-[2,3'-bipyridin]-6-yl)oxazolidin-2-one], the fold induction at 1 µM in assay [1] was greater than 1.5. Also, in assay [2], the IC50 was no more than 100 nM.
`O=C(Nc1ccncc1)c1cccc(-c2cccc3c(C(=O)N4CCCCC4)cnn23)c1` [Example 38, 3-(3-(piperidine-1-carbonyl)pyrazolo[1,5-a]pyridin-7-yl)-N-(pyridin-4-yl)benzamide]: in assay [1], the fold induction at 1 µM was greater than 1.5. The compound also came in with an IC50 in assay [2] of no more than 100 nM.
Turning to `CN(C)CCNC(=O)c1ccc(-c2cccc3c(C(=O)N4CCCCC4)cnn23)cn1` [Example 79, N-(2-(dimethylamino)ethyl)-5-(3-(piperidine-1-carbonyl)pyrazolo[1,5-a]pyridin-7-yl)picolinamide], the fold induction at 1 µM in assay [1] is greater than 1.5. Also, the IC50 in assay [2] is no more than 100 nM.
`O=C(Cc1ccc(C(F)(F)F)nc1)Nc1ccc(-c2cccc3c(C(=O)N4CCCCC4)cnn23)cn1` [Example 408, N-[5-[3-(piperidine-1-carbonyl)pyrazolo[1,5-a]pyridin-7-yl]-2-pyridyl]-2-[6-(trifluoromethyl)-3-pyridyl]acetamide]: the fold induction at 1 µM in assay [1] was greater than 1.5. Further, in assay [2], the IC50 is no more than 100 nM.
On the same counts, the results for `Cc1cnc(-c2ccc(-c3cccc4c(C(=O)N5CCCCC5)cnn34)cc2)s1` [Example 351, [7-[4-(5-methylthiazol-2-yl)phenyl]pyrazolo[1,5-a]pyridin-3-yl]-(1-piperidyl)methanone] are greater than 1.5 and no more than 100 nM.
